Reference: patent US20140011700A1 (Bristol-Myers Squibb Company, published 2014)

How the values were obtained:
Format in all cases: cell-based, Influenza A
[1] = test system: A/WSN/33 N309K
[2] = test system: A/WSN/33 N309T
[3] = test system: A/WSN/33 Y289H
[4] = test system: A/WSN/33 Y52H

## COc1ccccc1-c1noc(C)c1C(=O)N1CCN(c2ccc([N+](=O)[O-])cc2Cl)CC1 [Compound B]
[1]
  EC50: > 20 µM
[2]
  EC50: 3.5 µM
[3]
  EC50: > 20 µM
[4]
  EC50: 8.15 µM

## Cc1cc(Br)cnc1N1CCN(C(=O)c2c(-c3ccccc3Cl)noc2C)CC1 [Compound D]
[1]
  EC50: > 20 µM
[2]
  EC50: > 20 µM
[3]
  EC50: > 20 µM
[4]
  EC50: > 20 µM
